As usually defined, the IC50 is the point on the concentration scale where inhibition reaches its midpoint.

The source of these data is patent publication US10940188B2, “Compounds and methods for treatment and prevention of Flavivirus infection” (priority 2016, dated 2021).

One data set relates to ZIKV MR766 NS1. Nature of the data set: microbe, parasite or virus in culture. Type of data set: cell-based, Zika virus. The note with it: Zika virus, HEK293, 48 h, read-out: NS1-IC50. As to the method: A one-step NS1 TR-FRET (Time-resolved fluorescence resonance energy transfer) assay for a screen of anti-ZIKV compounds was carried out. Human embryonic kidney cell line HEK293 cells were seeded into 384-well plates and infected with ZIKV MR766 at a MOI of 0.5 for 2 days. The FRET assay was performed with two clones of anti-NS1 antibody (ab) differentially labelled with donor and acceptor fluorophores.

The next data set deals with HEK293 cells. Nature of the data set: Toxicity IC50 (cell-killing activity) of the NS1 TR-FRET screen. Type of data set: cell-based, human. The note with it: cell-killing activity.
The test system of data set [1] is liver injury in chronic Hepatitis C patients. The note with it: chronic HCV patients; cited from earlier work.
The test system of data set [2] is human forebrain-specific organoids infected by FSS13025. The data set can be described thus: Immunostaining of ZIKV-infected forebrain-specific organoids for cleaved caspase-3 and ZIKVE. The note with it: FSS13025 infection, 10 days. Type of data set: cell-based. From the text:
FIGS. 1A-1, 1A-2, 1A-3, 1B-1, 1B-2, 1C-1, and 1C-2. Emricasan suppresses cell death of ZIKV-infected human astrocytes and hNPCs in 2D monolayer cultures and 3D brain organoids. Emricasan (FIG. 1A-1) inhibits caspase-3 activity and improves cell viability in human astrocytes infected with three different strains of ZIKV in a concentration dependent manner. Value represent mean±s.d. (n=3). The curves (FIGS. 1A-2 and 1A-3) represent best fit. (FIG. 1B) Sample images of immunostaining (FIG. 1B-1) of forebrain-specific hNPCs for ZIKV envelop protein (ZIKVE; green) and cleaved-caspase 3 (Cas3; red) and DAPI (gray) 72 hours after ZIKV FSS-13025 infection (MOI=0.04-0.08; Scale bar: 20 μm), and quantification (FIG. 1B-2). Values represent mean±s.e.m. (n=3; **P<0.01; Student's t-test). Sample images (FIG. 1C-1) of immunostaining of day 28 human forebrain-specific organoids for ZIKVE (green) and Cas3 (red) and DAPI (gray) 10 days after ZIKV FSS-13025 infection (Scale bar: 100 μm), and quantification (FIG. 1C-2). Values represent mean±s.e.m. (n=6; ***P<0.001; Student's t-test).
Forebrain-specific organoids were generated from the C2-1 human iPSC line as previously described. Briefly, human iPSC colonies were detached 7 days after passage with Collagenase Type IV, washed with fresh stem cell medium and cultured in a 15 ml conical tube. […]

The subject of data set [3] is forebrain-specific brain organoids. The data set can be described thus: hNPC proliferation in forebrain organoids (phospho-Histone 3), compound alone. Type of data set: cell-based, human. The note with it: 3 days. As to the method: (§1) FIGS. 17A-17C. Analysis of potential toxicity of CDKis on human astrocyte viability and hNPC proliferation. Human iPSC-derived astrocytes (BJ line) were treated with each indicated compound (cpd) for 25 hours prior to cell viability analysis as measured in relative luciferase units for ATP production. Values represent mean+s.d. (n=3 cultures; ***P<0.001; **P<0.01; One-way ANOVA for comparison with the DMSO treatment). RLU: relative luminescence units. hNPCs were treated with saline, PHA-690509 (PHA, 1 μM) or Seliciclib (5 μM), 1 hour prior to ZIKV PRVABC59 infection (MOI=0.08). At 72 hours post infection, EdU (10 μM) was added to hNPCs and cells were cultured for additional 4 hours prior to fixation and staining for EdU and DAPI. Values represent mean+s.e.m. (n=3 cultures; ***P<0.001; One-way ANOVA for comparison with the mock treatment). Day 20 forebrain-specific brain organoids were treated with PHA-690509 (1 μM) or Seliciclib (5 μM) for 3 days and hNPC proliferation was evaluated by phospho-Histone 3 (PH3) expression within the ventricular zone. Values represent mean+s.e.m. (n=8 organoids; P>0.05; One-way ANOVA for comparison with the mock treatment).

The subject of data set [4] is hNPCs infected with ZIKV PRVABC59. Nature of the data set: hNPC proliferation after ZIKV infection (EdU). Type of data set: cell-based, human. The note with it: PHA-690509 1 μM, Seliciclib 5 μM. As to the method:
as §1

SMILES strings stand for the structures. “Also recorded” adds a separate entry of the source.

Regarding `CC[C@H]1CN2CCc3cc(OC)c(OC)cc3[C@@H]2C[C@@H]1C[C@H]1NCCc2cc(OC)c(OC)cc21` [Emetine], the concentration for half-maximal inhibition (IC50) in the data set with ZIKV MR766 NS1 is 114 nM. In addition, the “Tox IC50” value with HEK293 cells is “No”.
Regarding `C[C@H](NC(=O)C(=O)Nc1ccccc1C(C)(C)C)C(=O)N[C@@H](CC(=O)O)C(=O)COc1c(F)c(F)cc(F)c1F` [Emricasan], in data set [1], the “liver injury and tolerability in clinical trials” value was “reduced liver injury and was tolerated over 12 weeks; also recorded: well tolerated in human trials without significant adverse events”. Also, the “number of cleaved caspase-3-expressing hNPCs, 3D organoid cultures” value in data set [2] is listed as “reduced the number of active (cleaved) caspase-3-expressing forebrain-specific hNPCs”.
Take `CC(=O)Nc1ccc([C@H](C)C(=O)Nc2ncc(C(C)C)s2)cc1` [PHA-690509]: the “effect of the treatment itself on hNPC proliferation” value in data set [3] is reported as “minimal effect on hNPC proliferation in brain organoids”. Further, the “rescue of ZIKV-induced reduction of hNPC proliferation” value in data set [4] is “partially rescued ZIKV-induced reduction of hNPC proliferation”.
